From patent US11312720B2, “Hydrochloride salt of 2-((3R,4S)-1-(5-(4-chloro-3,5-difluorophenyl)-7-((2-fluoro-6-methylphenyl)(methyl)amino)pyrazolo[1,5-a]pyrimidine-2-carbonyl)-3-methoxypiperidin-4-yl) acetic acid and crystals thereof” (Eisai R&D Management Co., Ltd., priority 2018, dated 2022)
In brackets after ≈: the same amount, converted by molar mass.

How the values were obtained:
[1] = Solubility test (24 h shaking at room temperature, HPLC); type: physicochemical; details: thermodynamic from solid
Description: About 1 mg of the test compound was weighed into a test tube and 1 mL of a test solution was added. For the test solutions, a 0.1 M hydrochloric acid aqueous solution (pH 1) and Britton-Robinson buffers (pH 3, pH 5 and pH 7; ionic strength 0.3) were used. The test solution was shaken at room temperature for 24 hours and subsequently filtered through a filter. A concentration of the test compound in the filtrate was measured by high-performance liquid chromatography to evaluate solubility. […] Additionally, high-performance liquid chromatography (HPLC) conditions are shown below.
Column; YMC-Pack Pro C18, 4.6 mm×35 mm, 3 μm
Mobile phase A; water:acetonitrile:70% perchloric acid=900:100:1
Mobile phase B; water:acetonitrile:70% perchloric acid=100:900:1
Column temperature; 40° C.
Detection wavelength; 275 nm

[2] = Dissolution test by the paddle method in FaSSIF; type: physicochemical; details: FaSSIF pH 6.5, 37° C., 50 rpm, about 10 mg in 100 mL
Description: The dissolution test was carried out by the paddle method using FaSSIF (an aqueous solution containing 3 mM sodium taurocholate, 0.75 mM lecithin, 29 mM sodium dihydrogen phosphate and 103 mM potassium chloride and adjusted to pH 6.5 by adding dropwise a sodium hydroxide aqueous solution) as the test solution. About 10 mg of the test compound was added to 100 mL of the test solution. Under the condition at 37° C. and 50 rpm, the test solution was stirred using a paddle. After the start of the stirring, 1 mL of the test solution was collected at each of the time points shown in Table 6 and filtered through a filter. A concentration of the test compound in the filtrate was measured by high-performance liquid chromatography (HPLC conditions were the same conditions described in Test Example 2).

[3] = aqueous buffer, pH 3, Britton-Robinson buffer
[4] = aqueous buffer, pH 5, Britton-Robinson buffer
[5] = aqueous buffer, pH 7, Britton-Robinson buffer
[6] = simulated gastric fluid, pH 1, 0.1M hydrochloric acid aqueous solution

Compound | solubility at 24 h [1, 3] | solubility at 24 h [1, 4] | solubility at 24 h [1, 5] | solubility at 24 h [1, 6] | Concentration of Test compound ([2]; 10 Min) | Concentration of Test compound ([2]; 20 Min) | Concentration of Test compound ([2]; 24 Hours) | Concentration of Test compound ([2]; 30 Min) | Concentration of Test compound ([2]; 40 Min) | Concentration of Test compound ([2]; 60 Min) | Concentration of Test compound ([2]; 90 Min) | Concentration of Test compound ([2]; 120 Min) | Concentration of Test compound ([2]; 180 Min) | Concentration of Test compound ([2]; 240 Min)
CO[C@H]1CN(C(=O)c2cc3nc(-c4cc(F)c(Cl)c(F)c4)cc(N(C)c4c(C)cccc4F)n3n2)CC[C@H]1CC(=O)O [Reference Example 4, 2-((3R,4S)-1-(5-(4-chloro-3,5-difluorophenyl)-7-((2-fluoro-6-methylphenyl)(methyl)amino)pyrazolo[1,5-a]pyrimidine-2-carbonyl)-3-methoxypiperidin-4-yl)acetic Acid] | < 1 µg/mL | < 1 µg/mL | 13 µg/mL (≈ 21.6 µM) | < 1 µg/mL | 4000 ng/mL | 7000 ng/mL | 18000 ng/mL | 8000 ng/mL | 9000 ng/mL | 10000 ng/mL | 11000 ng/mL | 11000 ng/mL | 12000 ng/mL | 12000 ng/mL
CO[C@H]1CN(C(=O)c2cc3nc(-c4cc(F)c(Cl)c(F)c4)cc(N(C)c4c(C)cccc4F)n3n2)CC[C@H]1CC(=O)O.Cl [Example 1, 2-((3R,4S)-1-(5-(4-chloro-3,5-difluorophenyl)-7-((2-fluoro-6-methylphenyl)(methyl)amino)pyrazolo[1,5-a]pyrimidine-2-carbonyl)-3-methoxypiperidin-4-yl)acetic Acid Hydrochloride] | < 1 µg/mL | 1 µg/mL | > 1200 µg/mL | 4 µg/mL | 30000 ng/mL | 38000 ng/mL | 103000 ng/mL | 46000 ng/mL | 51000 ng/mL | 61000 ng/mL | 72000 ng/mL | 78000 ng/mL | 85000 ng/mL | 87000 ng/mL
